System: Staphylococcus epidermidis
Experiment: biofilm assay (biofilm inhibition and biofilm dissolution, color reaction on microtiter plate scale, FIG. 1)
Format: cell-based
Settings: based on the positive control (PC1); for biofilm-dissolving effect: timepoint 24 h; for biofilm inhibition (biofilm-inhibiting effectiveness): timepoint 0 h
Experimental: In the course of the biofilm assay, the biofilm inhibition at timepoint 0 h and also the biofilm-dissolving effect at timepoint 24 h is investigated using a color reaction on a microtiter plate scale.
The test shown in FIG. 1 was carried out with Staphylococcus epidermidis, a germ which causes little harm for people with a normal immunological defense. Staphylococcus epidermidis (syn. Staphylococcus albus, Micrococcus epidermidis, Staphylococcus saprophyticus) is a Gram-positive, plasmacoagulase-negative, saprophagic bacterium which colonizes the human skin and mucosa. Furthermore, it can be found on foods and also colonizes on polymeric surfaces (e.g. packagings). However, in a hospital, in the case of immunocompromised people, it can, in cases of lack of cleanliness, be a cause of serious diseases.

CC(C)(C)CC(C)(C)c1ccc(OCCOCC[N+](C)(C)Cc2ccccc2)cc1 [benzethonium chloride, benzyldimethyl (4-{2-[4-(1,1,3,3-tetramethylbutyl)phenoxy]ethoxy}ethyl)ammonium chloride]
biofilm-dissolving effect: very good biofilm-dissolving effect

COC(=O)c1ccc(O)cc1 [methylparaben]
effectiveness in the biofilm assay (inhibition / dissolution not distinguished): Neither ethylparaben nor methylparaben exhibited effectiveness

CCCCCCCCCCCC(=O)N[C@@H](CCCN=C(N)N)C(=O)OCC.Cl [lauroyl ethyl arginate, ethyl lauroyl arginate HCl]
biofilm inhibition (biofilm-inhibiting effectiveness): very good biofilm-inhibiting effectiveness
biofilm-dissolving effect: very good biofilm-dissolving effect

CCOC(=O)c1ccc(O)cc1 [ethylparaben]
effectiveness in the biofilm assay (inhibition / dissolution not distinguished): Neither ethylparaben nor methylparaben exhibited effectiveness

Cc1cc(CC(C)CC(C)(C)C)n(O)c(=O)c1 (stereo not drawn) [piroctone olamine, 1-hydroxy-4-methyl-6-(2,4,4-trimethylpentyl)-2(1H)-pyridone]
biofilm inhibition (biofilm-inhibiting effectiveness): very good biofilm-inhibiting effectiveness
biofilm-dissolving effect: slight biofilm dissolution

Cn1sccc1=O [methylisothiazolinone, 2-methyl-2H-isothiazol-3-one]
biofilm inhibition (biofilm-inhibiting effectiveness): very good biofilm-inhibiting effectiveness
biofilm-dissolving effect: slight biofilm dissolution
